# Reference: PubChem BioAssay (NCI)
#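 GI50 is the concentration that inhibits growth by half. TGI is the concentration that stops growth completely.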
# Columns and labels:
# Experiment in all cases: NCI anticancer screen, dose series, 384-well format
# [1] = tested on: NCI/ADR-RES ovarian
# [2] = tested on: HCC-2998 colon
# [3] = tested on: HT29 colon
# [4] = tested on: OVCAR-8 ovarian
# [5] = tested on: A498 renal
# [6] = tested on: SF-539 CNS
# [7] = tested on: SW-620 colon
# [8] = tested on: A549 NSCLC
# [9] = tested on: MCF7 breast
# [10] = tested on: OVCAR-4 ovarian
# [11] = tested on: 786-0 renal
# [12] = tested on: UACC-62 melanoma
# [13] = tested on: SK-MEL-2 melanoma
# [14] = tested on: NCI-H460 NSCLC
# [15] = tested on: SK-MEL-5 melanoma
# [16] = tested on: NCI-H322M lung
# [17] = tested on: HCT-15 colon
# [18] = tested on: KM12 colon
# [19] = tested on: MDA-MB-435 melanoma
# [20] = tested on: UACC-257 melanoma
# [21] = tested on: MOLT-4 leukemia
# [22] = tested on: NCI-H23 lung
# [23] = tested on: TK-10 renal
# [24] = tested on: NCI-H522 lung
structure (smiles),measurement,setting,value
CCCS(=O)(=O)Nc1ccc(F)c(C(=O)c2c[nH]c3ncc(-c4ccc(Cl)cc4)cc23)c1F,GI50,[1],9.06 µM
same,TGI,[1],22.4 µM
same,GI50,[2],0.593 µM
same,TGI,[2],1.96 µM
same,GI50,[3],0.146 µM
same,TGI,[3],10.4 µM
same,GI50,[4],7.8 µM
same,TGI,[4],15.7 µM
same,GI50,[5],2.96 µM
same,TGI,[5],9.4 µM
same,GI50,[6],4.33 µM
same,TGI,[6],10.5 µM
same,GI50,[7],4.61 µM
same,TGI,[7],23.3 µM
same,GI50,[8],3.99 µM
same,TGI,[8],10.8 µM
same,GI50,[9],6.82 µM
same,TGI,[9],13.3 µM
same,GI50,[10],8.45 µM
same,TGI,[10],20.6 µM
same,GI50,[11],4.03 µM
same,TGI,[11],13.5 µM
same,GI50,[12],0.0345 µM
same,TGI,[12],0.912 µM
same,GI50,[13],0.0758 µM
same,TGI,[13],0.33 µM
same,GI50,[14],4.97 µM
same,TGI,[14],13.6 µM
same,GI50,[15],0.0794 µM
same,TGI,[15],1.81 µM
same,GI50,[16],4.65 µM
same,TGI,[16],16 µM
same,GI50,[17],5.83 µM
same,TGI,[17],13.5 µM
same,GI50,[18],4.11 µM
same,TGI,[18],13.1 µM
same,GI50,[19],0.281 µM
same,TGI,[19],14.6 µM
same,GI50,[20],0.347 µM
same,GI50,[21],3.23 µM
same,TGI,[21],8.74 µM
same,GI50,[22],4.19 µM
same,TGI,[22],13.2 µM
same,GI50,[23],13.5 µM
same,TGI,[23],22.3 µM
same,GI50,[24],7.93 µM
